Test system: TLR4 with MD2 or CD14 co-receptor
Test: Reporter gene (SEAP) PAMP assay in NIH3T3 cells expressing TLR4 with MD2 or CD14 co-receptor
Assay type: cell-based
Conditions: summary of FIGS. 6A-6V

## ILFMGMKWL (Inhibitor) [SEQ ID No. 9]
co-receptor (MD2/CD14) via which the effect occurs
  Co-Receptor/s: MD2
Type of effect (activation/inhibition) on TLR4
  Activity: Inhibitor

— US20200247849A1, “PEPTIDE AGONISTS AND ANTAGONISTS OF TLR4 ACTIVATION” (PEPTICOM LTD, priority 2016, published 2020)
